These results are taken from ChEMBL document CHEMBL1146131, “3D-QSAR studies of farnesyltransferase inhibitors: a comparative molecular field analysis approach” (Bioorg Med Chem Lett, 2006).

The assay addresses Protein farnesyltransferase (Homo sapiens, UniProt P49354+P49356). Kind of assay: Inhibition of FTase. It is filed as protein-complex assay.

Molecules are shown by their SMILES.

For orientation: IC50 means the point on the concentration scale where inhibition reaches its midpoint.

Consider `Cn1cncc1C(OCc1ccc(C#N)cc1C(=O)Nc1cccc(Cl)c1)c1ccc(C#N)cc1` (stereo not given), for which the IC50 was 759 nM.
In the case of `Cn1cncc1C(OCc1ccc(C#N)cc1-c1cccc(Cl)c1)c1ccc(C(F)(F)F)cc1` (stereo not given) it was 1120 nM; in that of `CCOc1ccc(-c2cc(C#N)ccc2COC(c2ccc(C#N)cc2)c2cncn2C)cc1` (stereo not given), 1200 nM.
In the case of `COc1cccc(-c2cc(NS(C)(=O)=O)ccc2COC(c2ccc(C#N)cc2)c2cncn2C)c1` (stereo not given) it was 35500 nM; in that of `N#Cc1ccc(C(OCc2ccc(C#N)cc2-c2ccc3c(c2)OCO3)c2cnccc2Cl)cc1` (stereo not given), 15100 nM; in that of `COC(=O)c1ccc(COC(c2ccc(C#N)cc2)c2cncn2C)c(-c2cccc(OC)c2)c1` (stereo not given), 13200 nM.
With `Cn1cncc1C(OCc1ccc(C#N)cc1NS(=O)(=O)c1cccs1)c1ccc(C#N)cc1` (stereo not given), the IC50 is 891 nM.
In turn, `Cn1cncc1C(OCc1ccc(C#N)cc1-c1cccc(Cl)c1)c1ccc(C#N)cc1F` (stereo not given) gave an IC50 of 776 nM.
In turn, `Cn1cncc1C(OCc1ccc(C#N)cc1-c1ccc2c(c1)OC(F)(F)O2)c1ccc(C#N)cc1` (stereo not given) gave an IC50 of 1120 nM.
Molecule `Cn1cncc1C(OCc1ccc(C#N)cc1NCc1cc(F)cc(F)c1)c1ccc(C#N)cc1` (stereo not given) had an IC50 of 617 nM.
`COc1cccc(-c2cc(C#N)ccc2COC(c2ccc(C#N)c(Cl)c2)c2cncn2C)c1` (stereo not given) showed an IC50 of 977 nM.
`CCOc1cccc(-c2cc(Cl)ccc2COC(c2ccc(C#N)cc2)c2cncn2C)c1` (stereo not given) gave an IC50 of 1120 nM.
In the case of `Cn1cncc1C(OCc1ccc(Cl)cc1-c1cccc(Cl)c1)c1ccc(C#N)cc1` (stereo not given) it was 813 nM; in that of `Cc1ncc(C(OCc2ccc(C#N)cc2-c2cccc(Cl)c2)c2ccc(C#N)cc2)n1C` (stereo not given), 2040 nM.
The value for `COCC(=O)Nc1ccc(COC(c2ccc(C#N)cc2)c2cncn2C)c(-c2cccc(OC)c2)c1` (stereo not given) was 11200 nM; that for `COc1cccc(-c2cc(Cl)ccc2COC(c2ccc(C#N)cc2)c2cncn2C)c1` (stereo not given) was 912 nM.
`Cn1cncc1C(OCc1ccc(C#N)cc1-c1ccc2c(c1)OCO2)c1ccc(C#N)cc1` (stereo not given): inhibition was half-maximal at 871 nM (IC50).
Turning to `Cn1cncc1C(OCc1ccc(Cl)cc1-c1ccc(Cl)cc1)c1ccc(C#N)cc1` (stereo not given), the IC50 was 4900 nM.
On to `Cn1cncc1C(OCc1ccc(C#N)cc1NS(=O)(=O)c1cccc2ccccc12)c1ccc(C#N)cc1` (stereo not given), for which the IC50 was 2630 nM.
In turn, `Cn1cncc1C(OCc1ccc(C#N)cc1-c1cccc(Cl)c1)c1ccc(C#N)cc1` (stereo not given) showed an IC50 of 871 nM.
`Cn1cncc1C(OCc1ccc(C#N)cc1NC(=O)c1ccccc1)c1ccc(C#N)cc1` (stereo not given) gave a concentration for half-maximal inhibition (IC50) of 5010 nM.
On to `COc1ccc(-c2cc(C#N)ccc2COC(c2ccc(C#N)cc2)c2cncn2C)cc1` (stereo not given), for which the IC50 was 977 nM.
Molecule `COCc1cccc(-c2cc(C#N)ccc2COC(c2ccc(C#N)cc2)c2cncn2C)c1` (stereo not given) showed an IC50 of 191 nM.
In the case of `Cn1cncc1C(OCc1ccc(C#N)cc1-c1cccc(Cl)c1)c1ccc(C#N)c(F)c1` (stereo not given) it was 447 nM.
The value for `Cn1cncc1C(OCc1ccc(C#N)cc1-c1cccc2ccccc12)c1ccc(C#N)cc1` (stereo not given) was 955 nM; that for `Cn1cncc1C(OCc1ccc(C#N)cc1-c1cc(F)cc(F)c1)c1ccc(C#N)cc1` (stereo not given) was 1000 nM; that for `Cn1cncc1C(OCc1ccc(C#N)cc1-c1cccc(OC(F)(F)F)c1)c1ccc(C#N)cc1` (stereo not given) was 851 nM.
`Cc1ccc(-c2cc(C#N)ccc2COC(c2ccc(C#N)cc2)c2cncn2C)cc1` (stereo not given) gave an IC50 of 1120 nM.
The molecule `COc1cccc(-c2cc([N+](=O)[O-])ccc2COC(c2ccc(C#N)cc2)c2cncn2C)c1` (stereo not given) had an IC50 of 1120 nM.
In the case of `Cc1ncc(C(OCc2ccc(C#N)cc2-c2ccc3c(c2)OCO3)c2ccc(C#N)cc2)n1C` (stereo not given) it was 1620 nM.
For `COc1cccc(-c2cc(N)ccc2COC(c2ccc(C#N)cc2)c2cncn2C)c1` (stereo not given), the midpoint of inhibition, the IC50, lay at 40700 nM.
As to `COc1cccc(-c2cc(C#N)ccc2COC(c2ccc(Cl)cc2)c2cncn2C)c1` (stereo not given), half-maximal inhibition (IC50) required 2040 nM.
`COc1cccc(-c2cc(C=O)ccc2COC(c2ccc(C#N)cc2)c2cncn2C)c1` (stereo not given) had an IC50 of 1620 nM.
For the molecule `Cc1ccc(S(=O)(=O)Nc2cc(C#N)ccc2COC(c2ccc(C#N)cc2)c2cncn2C)cc1` (stereo not given), the IC50 is 1000 nM.
The molecule `N#Cc1ccc(C(OCc2ccc(C#N)cc2-c2cccc(Cl)c2)c2cncs2)cc1` (stereo not given) gave an IC50 of 4070 nM.
The value for `COc1cccc(-c2cc(C(=O)O)ccc2COC(c2ccc(C#N)cc2)c2cncn2C)c1` (stereo not given) was 83200 nM; that for `Cn1cncc1C(OCc1ccc(C#N)cc1-c1cccc2cccnc12)c1ccc(C#N)cc1` (stereo not given) was 5250 nM; that for `Cn1cncc1C(OCc1ccc(Cl)cc1-c1ccccc1Cl)c1ccc(C#N)cc1` (stereo not given) was 8910 nM.
As to `Cn1cncc1C(OCc1ccc(C#N)cc1C(=O)Nc1ccccc1)c1ccc(C#N)cc1` (stereo not given), the midpoint of inhibition, the IC50, lay at 2240 nM.
In the case of `CCOc1cccc(-c2cc(C#N)ccc2COC(c2ccc(C#N)cc2)c2cncn2C)c1` (stereo not given), the IC50 was 692 nM.
